Test results reported in US10538555B2, “Macrocyclic inhibitors of the PD-1/PD-L1 and CD80(B7-1)/PD-L1 protein/protein interactions” (BRISTOL-MYERS SQUIBB COMPANY, priority 2014, dated 2020).
Read-outs that look alike come from different tables or passages of the source. Where a SMILES comes first, the peptide text is derived from it. Bridges are numbered along the chain shown (N, C = ends). [ ]: non-standard residue; d: D form. ξ: configuration not given here. Trp(1-CH2COOH) = N[C@@H](Cc1cn(CC(=O)O)c2ccccc12)C(=O)O; Phe(3,4,5-F3) = N[C@@H](Cc1cc(F)c(F)c(F)c1)C(=O)O; Phe(3,4-F2) = N[C@@H](Cc1ccc(F)c(F)c1)C(=O)O; NMePhe(4-F) = CN[C@@H](Cc1ccc(F)cc1)C(=O)O; Phe(4-F) = N[C@@H](Cc1ccc(F)cc1)C(=O)O; 2Nal = N[C@@H](Cc1ccc2ccccc2c1)C(=O)O; Bta = N[C@@H](Cc1csc2ccccc12)C(=O)O; Hyp = O=C(O)[C@@H]1C[C@@H](O)CN1; NMeF = CN[C@@H](Cc1ccccc1)C(=O)O; dNMeF = CN[C@H](Cc1ccccc1)C(=O)O; dHyp = O=C(O)[C@H]1C[C@H](O)CN1; NMehSer = CN[C@@H](CCO)C(=O)O; Thr(3ξ) = CC(O)[C@H](N)C(=O)O; NMeNle = CCCC[C@H](NC)C(=O)O; Pip = O=C(O)[C@@H]1CCCCN1; dPip = O=C(O)[C@H]1CCCCN1; NMeA = CN[C@@H](C)C(=O)O; Orn = NCCC[C@H](N)C(=O)O; dThz = O=C(O)[C@H]1CSCN1; Dab = NCC[C@H](N)C(=O)O; Dap = NC[C@H](N)C(=O)O; ξC = NC(CS)C(=O)O; Sar = CNCC(=O)O

Biological target: T1, Human PD-L1/PD-1 (Homo sapiens, UniProt Q9NZQ7)
T1 construct: TVMV protease cleavage site (C); made in house; host or cells: HEK293T cells
Assay: HTRF Human PD-L1/PD-1 binding assay (PD-1-Ig/PD-L1-His)
Details: PD-L1-His 10 nM, PD-1-Ig 20 nM
How it was run: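 Soluble HEK293T-expressed proteins: hPD-L1-His 10 nM, hPD-1-Ig 20 nM final. Cpd + PD-L1 15 min, + PD-1 15 min, + Eu anti-Ig 1 nM/APC anti-His 20 nM 30 min. Buffer dPBS, 0.1% BSA, 0.05% Tween-20. TR-FRET 665/620.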

[1] = class symbol, read-out: HTRF Human PD-L1/PD-1 Binding Assay IC50 Range
[2] = read-out: HTRF Human PD-L1/PD-1 Binding Assay IC50

T1 sequence (Q9NZQ7 with tags, fused parts or gaps): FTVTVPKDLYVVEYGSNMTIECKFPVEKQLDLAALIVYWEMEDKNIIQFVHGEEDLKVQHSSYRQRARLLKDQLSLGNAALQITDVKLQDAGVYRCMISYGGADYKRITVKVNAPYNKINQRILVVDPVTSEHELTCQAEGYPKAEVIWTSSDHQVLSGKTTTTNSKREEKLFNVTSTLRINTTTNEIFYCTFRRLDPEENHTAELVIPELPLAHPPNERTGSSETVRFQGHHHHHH

SMILES | IC50 [1] [nM] | IC50 [2] [nM]
COCC[C@H]1C(=O)N2C[C@@H](O)C[C@@H]2C(=O)N[C@@H](CC(=O)O)C(=O)N[C@@H](C(C)C)C(=O)N(C)[C@H](Cc2ccccc2)C(=O)N[C@@H](Cc2ccc(OC)cc2)C(=O)N2C[C@@H](O)C[C@@H]2C(=O)N[C@@H](Cc2c[nH]c3ccccc23)C(=O)N[C@@H](Cc2ccc(O)cc2)C(=O)N[C@@H](CCCN)C(=O)N[C@H](C(=O)NCC(N)=O)CSCC(=O)N[C@@H](Cc2ccc(F)c(F)c2)C(=O)N(C)[C@@H](Cc2ccccc2)C(=O)N1C [Example 9240] ({CH2CO}-[Phe(3,4-F2)][NMeF][NMehSer](Me)[dHyp]DV[dNMeF]Y(Me)[dHyp]WY[Orn]CG-NH2; thioether N-13) | 1 to 9.9 | 
CCCC[C@H]1C(=O)N(C)[C@@H](CCCC)C(=O)N[C@@H](CCC(=O)O)C(=O)N[C@H](C(=O)NCC(N)=O)CSCC(=O)N[C@@H](Cc2ccc(O)cc2)C(=O)N(C)[C@@H](C)C(=O)N[C@@H](CC(N)=O)C(=O)N2CCC[C@H]2C(=O)N[C@@H](CN)C(=O)N[C@@H](CCC(=O)O)C(=O)N2C[C@H](O)C[C@H]2C(=O)N[C@@H](Cc2c[nH]c3ccccc23)C(=O)N[C@@H](CCC(=O)O)C(=O)N[C@@H](Cc2c[nH]c3ccccc23)C(=O)N1C [Example 5243] ({CH2CO}-Y[NMeA]NP[Dap]E[Hyp]WEW[NMeNle][NMeNle]ECG-NH2; thioether N-14) | 100 to 990 | 
CCCC[C@H]1C(=O)N2C[C@H](O)C[C@@H]2C(=O)N[C@@H](CC(=O)O)C(=O)N[C@@H](C(C)C)C(=O)N(C)[C@@H](Cc2ccccc2)C(=O)N[C@@H](CC(N)=O)C(=O)N2C[C@H](O)C[C@@H]2C(=O)N[C@@H](Cc2c[nH]c3ccccc23)C(=O)N[C@@H](Cc2ccc(O)cc2)C(=O)N[C@@H](CCCN)C(=O)N[C@H](C(=O)NCC(N)=O)CSCC(=O)N[C@@H](Cc2ccc(F)c(F)c2)C(=O)N(C)[C@@H](Cc2ccccc2)C(=O)N1C [Example 9304] |  | 11.7
CCCC[C@H]1C(=O)N(C)[C@@H](CCCC)C(=O)N[C@@H](CCC(=O)O)C(=O)N[C@H](C(=O)NCC(N)=O)CSCC(=O)N[C@@H](Cc2ccc(O)cc2)C(=O)N(C)[C@@H](C)C(=O)N[C@@H](CC(=O)O)C(=O)N2CCC[C@H]2C(=O)N[C@@H](CN)C(=O)N[C@@H](CCC(=O)O)C(=O)N2C[C@H](O)C[C@H]2C(=O)N[C@@H](Cc2c[nH]c3ccccc23)C(=O)N[C@@H](CO)C(=O)N[C@@H](Cc2c[nH]c3ccccc23)C(=O)N1C [Example 5170] ({CH2CO}-Y[NMeA]DP[Dap]E[Hyp]WSW[NMeNle][NMeNle]ECG-NH2; thioether N-14) | 1 to 9.9 | 
CCCC[C@H]1C(=O)N2CCC[C@@H]2C(=O)N[C@@H](CC(=O)O)C(=O)N[C@@H](C(C)C)C(=O)N(C)[C@@H](CCOC)C(=O)N[C@@H](Cc2ccc(O)cc2)C(=O)N2CCCC[C@@H]2C(=O)N[C@@H](Cc2c[nH]c3ccccc23)C(=O)N[C@@H](Cc2ccc(O)cc2)C(=O)N[C@@H](CCCN)C(=O)N[C@H](C(=O)NCC(N)=O)CSCC(=O)N[C@@H](Cc2ccc(F)cc2)C(=O)N(C)[C@@H](Cc2ccccc2)C(=O)N1C [Example 9222] ({CH2CO}-[Phe(4-F)][NMeF][NMeNle][dP]DV[NMehSer](Me)Y[dPip]WY[Orn]CG-NH2; thioether N-13) |  | 144
CCCC[C@H]1C(=O)N2C[C@@H](O)C[C@@H]2C(=O)N[C@@H](CC(=O)O)C(=O)N[C@@H](C(C)C)C(=O)N(C)[C@@H](Cc2ccccc2)C(=O)N[C@@H](Cc2ccc(O)cc2)C(=O)N2C[C@@H](O)C[C@@H]2C(=O)N[C@@H](Cc2c[nH]c3ccccc23)C(=O)N[C@@H](Cc2ccc(O)cc2)C(=O)N[C@@H](CC(C)C)C(=O)N[C@H](C(=O)NCC(N)=O)CSCC(=O)N[C@@H](Cc2ccc(F)c(F)c2)C(=O)N(C)[C@@H](Cc2ccccc2)C(=O)N1C [Example 9227] ({CH2CO}-[Phe(3,4-F2)][NMeF][NMeNle][dHyp]DV[NMeF]Y[dHyp]WYLCG-NH2; thioether N-13) | 1 to 9.9 | 
CCCC[C@H]1C(=O)N(C)[C@@H](CCCC)C(=O)N[C@@H](CCCN)C(=O)N[C@H](C(=O)NCC(N)=O)CSCC(=O)N[C@@H](Cc2ccc(OC)cc2)C(=O)N(C)[C@@H](C)C(=O)N[C@@H](CC(N)=O)C(=O)N2CCC[C@H]2C(=O)N[C@@H](CN)C(=O)N[C@@H](CCC(=O)O)C(=O)N2C[C@H](O)C[C@H]2C(=O)N[C@@H](Cc2c[nH]c3ccccc23)C(=O)N[C@@H](CCN)C(=O)N[C@@H](Cc2c[nH]c3ccccc23)C(=O)N1C [Example 7091] ({CH2CO}-Y(Me)[NMeA]NP[Dap]E[Hyp]W[Dab]W[NMeNle][NMeNle][Orn]CG-NH2; thioether N-14) | 1 to 9.9 | 
CCCC[C@H]1C(=O)N(C)[C@@H](CCCC)C(=O)N[C@@H](CCCNC(=N)N)C(=O)N[C@H](C(=O)NCC(N)=O)CSCC(=O)N[C@@H](Cc2ccc(O)cc2)C(=O)N2CCCC[C@H]2C(=O)N[C@@H](CC(=O)O)C(=O)N2CCC[C@H]2C(=O)N[C@@H](Cc2c[nH]cn2)C(=O)N[C@@H](CCCN)C(=O)N2C[C@H](O)C[C@H]2C(=O)N[C@@H](Cc2c[nH]c3ccccc23)C(=O)N[C@@H](CO)C(=O)N[C@@H](Cc2c[nH]c3ccccc23)C(=O)N1C [Example 1537] ({CH2CO}-Y[Pip]DPH[Orn][Hyp]WSW[NMeNle][NMeNle]RCG-NH2; thioether N-14) | 10 to 99.9 | 
CCCC[C@H]1C(=O)N(C)[C@@H](CCCC)C(=O)N[C@@H](C(C)O)C(=O)N[C@H](C(=O)NCC(N)=O)CSCC(=O)N[C@@H](Cc2ccc(OC)cc2)C(=O)N(C)[C@@H](C)C(=O)N[C@@H](CC(N)=O)C(=O)N2CCC[C@H]2C(=O)N[C@@H](Cc2c[nH]cn2)C(=O)N[C@@H](CCC(N)=O)C(=O)N2C[C@H](O)C[C@H]2C(=O)N[C@@H](Cc2c[nH]c3ccccc23)C(=O)N[C@@H](CO)C(=O)N[C@@H](Cc2cn(CC(=O)O)c3ccccc23)C(=O)N1C (stereo partly drawn) [Example 7145] ({CH2CO}-Y(Me)[NMeA]NPHQ[Hyp]WS[Trp(1-CH2COOH)][NMeNle][NMeNle][Thr(3ξ)]CG-NH2; thioether N-14) | 1 to 9.9 | 
CCCC[C@H]1C(=O)N(C)[C@@H](CCCC)C(=O)N[C@@H](CCCN)C(=O)NC(C(=O)NCC(N)=O)CSCC(=O)N[C@@H](Cc2ccc(O)cc2)C(=O)N(C)[C@@H](C)C(=O)N[C@@H](CC(N)=O)C(=O)N2CCC[C@H]2C(=O)N[C@@H](CC(N)=O)C(=O)N[C@@H](CC(C)C)C(=O)N2CCC[C@H]2C(=O)N[C@@H](Cc2c[nH]c3ccccc23)C(=O)N[C@@H](CO)C(=O)N[C@@H](Cc2csc3ccccc23)C(=O)N1C (stereo partly drawn) [Example 9156] ({CH2CO}-Y[NMeA]NPNLPWS[Bta][NMeNle][NMeNle][Orn][ξC]G-NH2; thioether N-14) | 1 to 9.9 | 
CCCC[C@H]1C(=O)N(C)[C@@H](C)C(=O)N[C@@H](CCCNC(=N)N)C(=O)NC(C(=O)NCC(N)=O)CSCC(=O)N[C@@H](Cc2ccc(O)cc2)C(=O)N(C)[C@@H](C)C(=O)N[C@@H](CC(N)=O)C(=O)N2CCC[C@H]2C(=O)N[C@@H](Cc2cnc[nH]2)C(=O)N[C@H](CO)C(=O)N2CCC[C@H]2C(=O)N[C@@H](Cc2c[nH]c3ccccc23)C(=O)N[C@@H](CO)C(=O)N[C@@H](Cc2c[nH]c3ccccc23)C(=O)N1C (stereo partly drawn) [Example 9117] ({CH2CO}-Y[NMeA]NPH[dS]PWSW[NMeNle][NMeA]R[ξC]G-NH2; thioether N-14) | 10 to 99.9 | 
CCCC[C@H]1C(=O)N(C)[C@@H](CCCC)C(=O)N[C@@H](CCC(=O)O)C(=O)N[C@H](C(=O)NCC(N)=O)CSCC(=O)N[C@@H](Cc2ccc(O)cc2)C(=O)N2CCCC[C@H]2C(=O)N[C@@H](CC(=O)O)C(=O)N2CCC[C@H]2C(=O)N[C@@H](Cc2cnc[nH]2)C(=O)N[C@@H](CCC(=O)O)C(=O)N2C[C@H](O)C[C@H]2C(=O)N[C@@H](Cc2c[nH]c3ccccc23)C(=O)N[C@@H](CO)C(=O)N[C@@H](Cc2csc3ccccc23)C(=O)N1C [Example 1512] ({CH2CO}-Y[Pip]DPHE[Hyp]WS[Bta][NMeNle][NMeNle]ECG-NH2; thioether N-14) | 10 to 99.9 | 
CCCC[C@H]1C(=O)N2CSC[C@@H]2C(=O)N[C@@H](CC(=O)O)C(=O)N[C@@H](C)C(=O)N(C)[C@@H](Cc2ccccc2)C(=O)N[C@@H](Cc2ccc(O)cc2)C(=O)N(C)CC(=O)N[C@@H](Cc2c[nH]c3ccccc23)C(=O)N[C@@H](Cc2ccc(O)cc2)C(=O)N[C@@H](CC(C)C)C(=O)N[C@H](C(=O)NCC(N)=O)CSCC(=O)N[C@@H](Cc2ccccc2)C(=O)N(C)[C@@H](Cc2ccccc2)C(=O)N1C [Example 10085] ({CH2CO}-F[NMeF][NMeNle][dThz]DA[NMeF]Y[Sar]WYLCG-NH2; thioether N-13) | 100 to 990 | 
CCCC[C@H]1C(=O)N(C)CC(=O)N[C@@H](CC(=O)O)C(=O)N[C@@H](C(C)C)C(=O)N(C)[C@@H](Cc2ccccc2)C(=O)N[C@@H](Cc2ccc(O)cc2)C(=O)N(C)CC(=O)N[C@@H](Cc2c[nH]c3ccccc23)C(=O)N[C@@H](Cc2ccc(O)cc2)C(=O)N[C@@H](CC(C)C)C(=O)N[C@H](C(=O)NCC(N)=O)CSCC(=O)N[C@@H](Cc2ccc3ccccc3c2)C(=O)N(C)[C@@H](Cc2ccccc2)C(=O)N1C [Example 3233] ({CH2CO}-[2Nal][NMeF][NMeNle][Sar]DV[NMeF]Y[Sar]WYLCG-NH2; thioether N-13) | 1000 to 10000 | 
CCCC[C@H]1C(=O)N2CCC[C@@H]2C(=O)N[C@@H](CC(N)=O)C(=O)N[C@@H](C(C)C)C(=O)N(C)[C@@H](Cc2ccccc2)C(=O)N[C@@H](CC(=O)O)C(=O)N2CCCC[C@@H]2C(=O)N[C@@H](Cc2c[nH]c3ccccc23)C(=O)N[C@@H](Cc2ccc(O)cc2)C(=O)N[C@@H](CC(C)C)C(=O)N[C@H](C(=O)NCC(N)=O)CSCC(=O)N[C@@H](Cc2cc(F)c(F)c(F)c2)C(=O)N(C)[C@@H](Cc2ccc(F)cc2)C(=O)N1C [Example 10584] ({CH2CO}-[Phe(3,4,5-F3)][NMePhe(4-F)][NMeNle][dP]NV[NMeF]D[dPip]WYLCG-NH2; thioether N-13) | 1 to 9.9 | 
